Here are results for one molecule from PMC5712788, “DM9 Domain Containing Protein Functions As a Pattern Recognition Receptor with Broad Microbial Recognition Spectrum” (Frontiers in Immunology, 2017).

Usually Kd stands for a measure of binding affinity in units of concentration.

In the assay the target is T1, CgDM9CP-1 (rCgDM9CP-1) (Magallana gigas, UniProt K1QRB6).
T1 construct: gene CGI_10011001; recombinant, E. coli Transetta (DE3); two DM9 domains; mutants in pET-28a with N-terminal 6xHis; 5MH2 is D22A, 5MH3 is K43A
T1 sequence (K1QRB6 1-143): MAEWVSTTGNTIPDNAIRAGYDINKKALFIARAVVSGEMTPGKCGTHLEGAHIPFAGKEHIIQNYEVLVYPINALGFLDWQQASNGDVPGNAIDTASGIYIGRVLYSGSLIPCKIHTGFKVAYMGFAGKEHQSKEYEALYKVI
Kind of assay: ITC. Conditions: 25°C, PBS (pH 7.2 in table, 7.4 in methods), N = 1. The class given is binding. The text has this: ITC on CgDM9CP-1 (rCgDM9CP-1)

For `OC[C@H]1OC(O)[C@@H](O)[C@@H](O)[C@@H]1O` (stereo partly drawn) [D-mannose], the affinity, expressed as Kd, was 123 ± 19.7 µM and the Value is given as 8.16 ± 0.19 10^3 M^−1.
